Results taken from ChEMBL document CHEMBL4342430, “An Agonist Radioligand for the Proinflammatory Lipid-Activated G Protein-Coupled Receptor GPR84 Providing Structural Insights” (J Med Chem, 2020).
Calls of active or inactive are those of the source. No cut-off for these calls is given here.

What was measured:
[1] = molecular target: T1, G-protein coupled receptor 84 (Homo sapiens, UniProt Q9NQS5); test: Displacement of [3H]PSB-1584 from recombinant human GPR84 expressed in CHO cell membranes co-expressing beta-arrestin2 measured after 6 hrs by scintillation counting method
T1 sequence (Q9NQS5 whole entry): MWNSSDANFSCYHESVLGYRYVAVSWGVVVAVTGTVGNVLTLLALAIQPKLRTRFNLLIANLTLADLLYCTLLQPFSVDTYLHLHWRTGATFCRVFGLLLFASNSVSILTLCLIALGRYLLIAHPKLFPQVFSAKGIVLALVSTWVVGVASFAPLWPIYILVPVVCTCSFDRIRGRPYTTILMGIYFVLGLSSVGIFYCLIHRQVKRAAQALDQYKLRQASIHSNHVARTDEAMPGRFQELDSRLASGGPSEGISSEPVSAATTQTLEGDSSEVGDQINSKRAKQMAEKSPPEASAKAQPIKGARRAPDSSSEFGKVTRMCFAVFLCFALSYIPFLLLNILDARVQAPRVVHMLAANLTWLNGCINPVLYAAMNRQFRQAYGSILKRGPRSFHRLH

[2] = molecular target: T1, G-protein coupled receptor 84; test: Positive allosteric modulation of recombinant human GPR84 expressed in CHO cell membranes co-expressing beta-arrestin2 assessed as increase in [3H]PSB-1584 binding measured after 6 hrs by scintillation counting method relative to control
[3] = molecular target: T1, G-protein coupled receptor 84; test: Positive allosteric modulation of recombinant human GPR84 expressed in CHO cell membranes co-expressing beta-arrestin2 assessed as increase in [3H]PSB-1584 binding measured after 6 hrs by scintillation counting method
[4] = molecular target: T1, G-protein coupled receptor 84; test: Selectivity ratio of EC50 for agonist activity at recombinant human GPR84 expressed in CHO cell membranes co-expressing beta-arrestin2 assessed as inhibition of forskolin-stimulated [3H]cAMP accumulation to Ki for displacement of [3H]PSB-1584 from recombinant human GPR84 expressed in CHO cell membranes co-expressing beta-arrestin2; format: functional
[5] = molecular target: T1, G-protein coupled receptor 84; test: Agonist activity at recombinant human GPR84 expressed in CHO cell membranes co-expressing beta-arrestin2 assessed as inhibition of forskolin-stimulated [3H]cAMP accumulation preincubated for 5 mins followed by forskolin stimulation and measured after 15 mins by radioactive assay; format: functional, cell-based
[6] = molecular target: T1, G-protein coupled receptor 84; test: Agonist activity at recombinant human GPR84 expressed in CHO cell membranes co-expressing beta-arrestin2 assessed as beta-arrestin 2 recruitment measured after 90 mins by beta-galactosidase based PathHunter assay
[7] = molecular target: T1, G-protein coupled receptor 84; test: Displacement of [3H]PSB-1584 from recombinant human GPR84 expressed in CHO cell membranes co-expressing beta-arrestin2 at 100 uM measured after 6 hrs by scintillation counting method relative to control
[8] = species: Rattus norvegicus; test: Displacement of [3H]PSB-1584 from GPR84 in rat brain cortex membranes measured after 6 hrs by scintillation counting method; format: cell membranes
[9] = molecular target: G-protein coupled receptor 84 (Mus musculus) (UniProt Q8CIM5); test: Displacement of [3H]PSB-1584 from GPR84 in mouse liver membranes measured after 6 hrs by scintillation counting method; format: cell membranes
G-protein coupled receptor 84 (Mus musculus), sequence (Q8CIM5 whole entry): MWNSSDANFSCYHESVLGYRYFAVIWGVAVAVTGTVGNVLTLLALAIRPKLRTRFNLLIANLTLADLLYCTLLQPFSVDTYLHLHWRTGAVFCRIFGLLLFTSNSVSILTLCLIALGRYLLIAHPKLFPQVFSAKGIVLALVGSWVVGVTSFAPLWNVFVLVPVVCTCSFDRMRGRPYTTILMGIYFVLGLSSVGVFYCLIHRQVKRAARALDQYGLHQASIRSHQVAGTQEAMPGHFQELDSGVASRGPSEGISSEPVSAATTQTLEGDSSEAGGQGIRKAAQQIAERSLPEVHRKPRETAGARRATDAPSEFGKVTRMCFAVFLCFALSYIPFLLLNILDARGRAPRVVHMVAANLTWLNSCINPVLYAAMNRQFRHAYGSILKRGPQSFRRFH

[10] = species: Rattus norvegicus; test: Displacement of [3H]PSB-1584 from GPR84 in rat brain striatum membranes measured after 6 hrs by scintillation counting method; format: cell membranes
[11] = species: Rattus norvegicus; test: Displacement of [3H]PSB-1584 from GPR84 in rat liver membranes measured after 6 hrs by scintillation counting method; format: cell membranes

Compound: O=c1cc(NCCCOc2ccccc2)[nH]c(=O)[nH]1
- Ki [1]: 2.1 nM

Compound: Fc1ccc2c(Cc3c[nH]c4cc(F)ccc34)c[nH]c2c1
- %max [2]: 57%
- EC50 [3]: 302 nM

Compound: COc1ccc2[nH]cc(Cc3c[nH]c4ccccc34)c2c1
- %max [2]: 53%
- EC50 [3]: 495 nM

Compound: O=c1cc(NCCc2cccc(Cl)c2)[nH]c(=O)[nH]1
- Ki [1]: 4.75 nM

Compound: Fc1cc2[nH]cc(Cc3c[nH]c4cc(F)c(F)cc34)c2cc1F
- %max [2]: 55%
- EC50 [3]: 52.4 nM

Compound: Clc1ccc2[nH]cc(Cc3c[nH]c4ccc(Cl)cc34)c2c1
- Selectivity ratio [4]: 20
- %max [2]: 90%
- EC50 [3]: 250 nM

Compound: Fc1ccc2[nH]cc(Cc3c[nH]c4ccc(F)c(F)c34)c2c1F
- %max [2]: 67%
- EC50 [3]: 83.6 nM

Compound: CCCCCNc1cc(=O)[nH]c(=O)[nH]1
- Ki [1]: 91 nM

Compound: O=c1cc(NCCc2ccc(F)cc2)[nH]c(=O)[nH]1
- Ki [1]: 11.4 nM

Compound: CCCCCCNc1[nH]c(=O)[nH]c(=O)c1Br
- Ki [1]: 225 nM

Compound: O=C(NCCCc1ccccc1)c1cc(=O)[nH]c(=O)[nH]1
- Ki [1]: 1590 nM

Compound: Fc1cccc2c(Cc3c[nH]c4c(F)cccc34)c[nH]c12
- %max [2]: 153%
- EC50 [3]: 61.8 nM

Compound: CCCCCCSc1nc(C)cc(O)n1
- Ki [1]: 3630 nM

Compound: O=c1cc(N2CCN(C3CCc4ccccc43)CC2)[nH]c(=O)[nH]1 (centres undefined)
- Ki [1]: 14.7 nM

Compound: Cn1cc(Cc2cn(C)c3ccccc23)c2ccccc21
- IC50 [1]: 14 µM

Compound: Fc1cc2c(Cc3c[nH]c4cc(Cl)c(F)cc34)c[nH]c2cc1Cl
- Selectivity ratio [4]: 84
- %max [2]: 36%
- EC50 [3]: 129 nM

Compound: CCCCCCCCN(C)c1cc(=O)[nH]c(=O)[nH]1
- Ki [1]: 3.6 nM

Compound: Brc1ccc2[nH]cc(Cc3c[nH]c4ccc(Br)cc34)c2c1
- Selectivity ratio [4]: 58
- %max [2]: 69%
- EC50 [3]: 59.1 nM

Compound: Cc1ccc(CCNc2cc(=O)[nH]c(=O)[nH]2)cc1
- Ki [1]: 1.25 nM

Compound: Cc1ccc(CCSc2nc(O)cc(=O)[nH]2)cc1
- Ki [1]: 3.28 nM

Compound: O=c1cc(N2CCC(Cc3ccccc3)CC2)[nH]c(=O)[nH]1
- Ki [1]: 18.7 nM

Compound: Oc1cc(O)nc(SCCCCc2ccccc2)n1
- Ki [1]: 0.324 nM

Compound: CCCCCNC(=O)c1cc(=O)[nH]c(=O)[nH]1
- Ki [1]: 1560 nM

Compound: O=c1cc(N2CCN(c3ccc(Cl)cc3)CC2)[nH]c(=O)[nH]1
- Ki [1]: 44.4 nM

Compound: CCCCCCC(O)C(=O)O (racemic)
- EC50 [5]: > 100 µM
- EC50 [6]: > 100 µM
- inhibition [7]: 50%
- Ki [1]: 100000 nM

Compound: Fc1ccc2[nH]cc(Cc3c[nH]c4ccccc34)c2c1
- %max [2]: 55%

Compound: O=c1cc(NCCCCCCCO)[nH]c(=O)[nH]1
- Ki [1]: 267 nM

Compound: O=c1cc(NCCc2ccc(Br)cc2)[nH]c(=O)[nH]1
- inhibition [8]: Active
- inhibition [9]: Active
- inhibition [10]: Active
- inhibition [11]: Active

Compound: Fc1ccc2[nH]cc(Cc3c[nH]c4ccc(F)cc34)c2c1
- %max [2]: 125%
- EC50 [3]: 199 nM

Compound: CCCCCCCCCC(O)CC(=O)O (racemic)
- EC50 [6]: 3.25 µM
- Ki [1]: 110 nM

Compound: CCCCCCCCCCCCC(=O)O [TRIDECANOATE]
- EC50 [5]: 9.61 µM
- EC50 [6]: 1.7 µM
- Ki [1]: 1930 nM

Compound: CC(C)(C)c1ccc(CCNc2cc(=O)[nH]c(=O)[nH]2)cc1
- Ki [1]: 1.27 nM

Compound: CCCCCCCCCCC[C@@H](O)CC(=O)O
- EC50 [5]: 1.75 µM
- EC50 [6]: 0.452 µM
- Ki [1]: 472 nM

Compound: O=c1cc(NCCc2c[nH]c3ccccc23)[nH]c(=O)[nH]1
- Ki [1]: 497 nM

Compound: CCCCCCOC(=O)c1cc(=O)[nH]c(=O)[nH]1
- Ki [1]: 1210 nM

Compound: O=c1cc(N2CCN(Cc3cccc4ccccc34)CC2)[nH]c(=O)[nH]1
- Ki [1]: 62.7 nM

Compound: O=c1cc(NCCc2cccc(Br)c2)[nH]c(=O)[nH]1
- Ki [1]: 3.99 nM

Compound: Oc1cc(O)nc(SCCCc2ccccc2)n1
- Ki [1]: 0.7 nM

Compound: O=c1cc(NCCc2ccccc2Cl)[nH]c(=O)[nH]1
- Ki [1]: 36 nM

Compound: CCCCCCCCNc1[nH]c(=O)[nH]c(=O)c1Br
- Ki [1]: 34.7 nM

Compound: CCCCCCSc1nc(O)cc(C(=O)O)n1
- Ki [1]: 145 nM

Compound: CCCCCCNC(=O)c1cc(=O)[nH]c(=O)[nH]1
- Ki [1]: 469 nM

Compound: O=c1cc(NCCc2cccs2)[nH]c(=O)[nH]1
- Ki [1]: 49.4 nM

Compound: O=c1cc(O)nc(SCCc2ccc(F)cc2)[nH]1
- Ki [1]: 3.77 nM

Compound: CCCCCCCNc1[nH]c(=O)[nH]c(=O)c1N=O
- Ki [1]: 58.6 nM

Compound: O=C(O)CCCCCCCCCCCO
- EC50 [5]: > 100 µM
- EC50 [6]: > 100 µM
- inhibition [7]: 5%
- Ki [1]: > 10000 nM

Compound: CCc1ccc(CCNc2cc(=O)[nH]c(=O)[nH]2)cc1
- Ki [1]: 0.582 nM

Compound: CCCC(c1c[nH]c2ccccc12)c1c[nH]c2ccccc12
- IC50 [1]: 22.4 µM

Compound: CCCCCCCCCNC(=O)c1cc(=O)[nH]c(=O)[nH]1
- inhibition [7]: 26%
- Ki [1]: > 10000 nM

Compound: CCCCCCCC(O)CC(=O)O (racemic)
- EC50 [5]: 31.8 µM
- EC50 [6]: 4.05 µM
- Ki [1]: 3310 nM

Compound: CCCCCCCCCCCCC(O)C(=O)O (racemic)
- EC50 [5]: 3.86 µM
- EC50 [6]: 4.36 µM
- Ki [1]: 318 nM

Compound: CCCCCCCCNC(=O)c1cc(=O)[nH]c(=O)[nH]1
- inhibition [7]: 12%
- Ki [1]: > 10000 nM

Compound: O=c1cc(NCCc2ccc(Cl)cc2Cl)[nH]c(=O)[nH]1
- Ki [1]: 2.3 nM

Compound: Oc1cc(NCCc2ccccc2)nc(O)n1
- Ki [1]: 10.8 nM

Compound: COc1ccc2[nH]cc(Cc3c[nH]c4ccc(OC)cc34)c2c1
- %max [2]: 46%
- EC50 [3]: 103 nM

Compound: CCCCCCSc1nc(O)cc(CCC)n1
- inhibition [7]: 51%
- Ki [1]: ≥ 100000 nM

Compound: O=c1cc(O)nc(SCCc2ccc(Cl)cc2)[nH]1
- Ki [1]: 2.63 nM

Compound: CCCCCCCCCCCC(O)CC(=O)O (racemic)
- EC50 [5]: 1.57 µM
- EC50 [6]: 0.432 µM
- Ki [1]: 511 nM

Compound: CCCCCCSc1nccc(O)n1
- Ki [1]: 3470 nM

Compound: Clc1cccc2[nH]cc(Cc3c[nH]c4cccc(Cl)c34)c12
- %max [2]: 94%
- EC50 [3]: 175 nM

Compound: CCCCCCSc1nc(O)cc(C(=O)OC)n1
- inhibition [7]: 9%
- Ki [1]: > 10000 nM

Compound: O=c1cc(NCCc2ccccc2F)[nH]c(=O)[nH]1
- Ki [1]: 35.6 nM

Compound: c1ccc2c(Cc3c[nH]c4ccccc34)c[nH]c2c1
- %max [2]: < 100%
- Activity [3]: Dose-dependent effect
- inhibition [1]: inactive

Compound: CCCCCCCCNc1[nH]c(=O)[nH]c(=O)c1N=O
- Ki [1]: 37 nM

Compound: Clc1ccc2c(Cc3c[nH]c4cc(Cl)ccc34)c[nH]c2c1
- IC50 [1]: 43.7 µM

Compound: Fc1cc(F)c2[nH]cc(Cc3c[nH]c4c(F)cc(F)cc34)c2c1
- %max [2]: 87%

Compound: O=c1cc(O)nc(SCCc2ccc(C(F)(F)F)cc2)[nH]1
- Ki [1]: 36.7 nM

Compound: O=c1cc(NCCc2cccc(F)c2)[nH]c(=O)[nH]1
- Ki [1]: 9.48 nM

Compound: CCCCCCCNc1cc(=O)[nH]c(=O)[nH]1
- Ki [1]: 0.866 nM

Compound: O=c1cc(NCCOc2ccccc2)[nH]c(=O)[nH]1
- Ki [1]: 3.12 nM

Compound: CCCCCCCCCCNc1cc(O)nc(O)n1
- Ki [1]: 0.726 nM

Compound: CCCCCCCCCNc1cc(=O)[nH]c(=O)[nH]1
- Ki [1]: 1.12 nM

Compound: CCCCCCCC(=O)O [OCTANOIC ACID]
- EC50 [5]: > 100 µM
- EC50 [6]: > 100 µM
- Ki [1]: 19600 nM

Compound: CCCCCCN(C)c1cc(=O)[nH]c(=O)[nH]1
- Ki [1]: 6.94 nM

Compound: Fc1cccc2[nH]cc(Cc3c[nH]c4cccc(F)c34)c12
- %max [2]: 56%
- EC50 [3]: 1520 nM

Compound: CCCCCCCCCCCC(=O)O [DODECANOATE]
- EC50 [6]: 3.49 µM
- Ki [1]: 2170 nM

Compound: Oc1cc(NCCCCc2ccccc2)nc(O)n1
- Ki [1]: 0.58 nM

Compound: CCC/C=C/CNc1cc(=O)[nH]c(=O)[nH]1
- Ki [1]: 37.4 nM

Compound: O=Nc1c(NCCCc2ccccc2)[nH]c(=O)[nH]c1=O
- Ki [1]: 189 nM

Compound: O=C(c1c[nH]c2ccccc12)c1c[nH]c2ccccc12
- %max [2]: 59%
- EC50 [3]: 1930 nM

Compound: CCCCOC(=O)c1cc(O)nc(O)n1
- inhibition [7]: -3%
- Ki [1]: > 10000 nM

Compound: O=c1cc(O)nc(SCCc2ccc(Br)cc2)[nH]1
- Ki [1]: 3.17 nM

Compound: CCC(c1c[nH]c2ccccc12)c1c[nH]c2ccccc12
- IC50 [1]: 46.3 µM
